The test system of data set [1] is mouse embryonic fibroblast (NIH/3T3) cell line. Kind of data set: cells. The settings on record: for EC50: Mus musculus, NIH3T3, cell viability, NIH/3T3, 24 h, CCK-8. The data set is classed as cell-based. How it is done:
(§1) Madin–Darby bovine kidney (MDBK) (ECACC), mouse embryonic fibroblast (NIH/3T3 ATCC CRL-1658) and Human foreskin fibroblast (HFF HFF-1 ATCC SCRC-1041) cell lines were recovered from -80°C stock and cultured continuously in our laboratory at 37°C in a humidified incubator with 5% CO2. In 75 cm^2 culture flasks, NIH/3T3 and HFF cell lines were maintained with Dulbecco’s Modified Eagle’s Medium (DMEM; Gibco, Grand Island, NY, USA), while the MDBK cell line was maintained with Minimum Essential Medium Eagle (MEM; Gibco). Ten percent fetal bovine serum, 1% glutamine, and 0.5% penicillin/streptomycin (Gibco) were added to all media and the cells were stained with 4, 6-diamidino-2-phenylindole dihydrochloride (DAPI; Sigma-Aldrich, St. Louis, MO, USA) to ensure that they were free from mycoplasma contamination. Afterward, the cells were washing twice with Dulbecco’s phosphate-buffered saline and TrypLE Express (Gibco) was used for cell detachment from the culture flask. Finally, Neubauer improved C-Chip (NanoEntek Inc., Seoul, Korea) was used for counting the viable cells after staining with 0.4% trypan blue solution.
(§2) The cytotoxicity assay was performed in accordance with the previously described protocol. Briefly, the assay was carried out using 96-well plates at 37 °C in a humidified incubator with 5% CO2, 100 μl of cells at a density of 5 x 10^4 cells/ml was seeded per well and allowed to attach to the plate for 24 h. Ten microliters of twofold drug dilutions was added to each well to a final concentration of 0.781 to 100 μM in triplicate and incubated for another 24 h. Ten μl of Cell Counting Kits-8 (CCK-8; Dojindo, Japan) was added to each well and incubated for another 3 h, and the absorbance was measured at 450 nm using a microplate reader.

Data set [2] has as its system Madin–Darby bovine kidney (MDBK) cell line. Kind of data set: cells. The note with it: for EC50: Bos taurus, MDBK, 24 h, cell viability, CCK-8. The data set is classed as cell-based. How it is done: as §1, §2
Data set [3] deals with human foreskin fibroblast (HFF) cell line. Put plainly: cells. The data set is classed as cell-based. The note with it: for EC50: Homo sapiens, cell viability, HFF, 24 h, CCK-8. The procedure: as §1, §2
Data set [4] can be described thus: Hematology profiles, body weight and adverse effects of treated B. microti-infected mice. Format: in vivo. The settings on record: CRY administered i.p. How it is done: The promising effect of CRY in vitro encouraged us to evaluate its in vivo effects against B. microti in mice. The assay was conducted in accordance with the previously described protocol. In two separate trials, 35 female 8-week-old BALB/c mice, housed under a pathogen-free environment with controlled humidity, temperature (22°C) and a 12 h light/ dark cycle were caged in seven groups, each group consisting of five mice. Six groups were i.p. injected with 0.5 ml of inoculum (1×10^7 B. microti iRBCs), while the seventh group was left uninfected and untreated to act as a negative control. When the average parasitemia in all infected mice reached approximately 1%, the 5-day drug treatment was initiated. […] Parasitemia and hematology profiles (RBCs, hemoglobin (HGB), and HCT) were monitored every 2 and 4 days by microscopic examination and hematology analyzer (Celltac α MEK-6450, Nihon Kohden Corporation, Tokyo, Japan), respectively. […]
The IC50 values of CRY, DA, CF, and AQ were determined using the nonlinear regression curve fit in GraphPad Prism (GraphPad Software Inc., San Diego, CA, USA). Combination index (CI) values for the drug combination were calculated using CompuSyn software, and the degree of synergism was determined as the weighted average of CI values using a formula [(1 x IC50) + (2 x IC75) + (3 x IC90) + (4 x IC95)]/10 [30]. […]

Data set [5] relates to bovine RBCs / B. divergens. Put plainly: Growth of B. divergens with CRY-treated bovine RBCs. The data set is classed as cell-based, Babesia divergens. The note with it: bovine RBCs pre-incubated with 1 and 10 μM CRY for 3 and 6 h, 4 days. The procedure: (§3) To investigate the hemolytic effect of CRY on host (bovine or equine) RBCs, bovine and equine RBCs were incubated with 1 and 10 μM of CRY for 3 and 6 h. The RBCs were washed thrice with phosphate-buffered saline (PBS) and mixed with B. divergens and B. caballi infected RBCs (iRBCs, recovered from −80 °C stock at our laboratory) harvested with a parasitemia of 8% and 3%, respectively and adjusted to 1% parasitemia with fresh RBCs. In a 24-well plate, 100 μl of iRBCs was added to 900 μl of complete medium and the parasite growth was monitored daily by microscopic examination of a Giemsa-stained blood smear for 4 days.

Data set [6] deals with P. berghei. Further details: method as in PMID 11543688. The settings on record: no apparent toxicity; cited from earlier work.
The test system of data set [7] is equine RBCs / B. caballi. Kind of data set: Growth of B. caballi with CRY-treated horse RBCs. The note with it: equine RBCs pre-incubated with 1 and 10 μM CRY for 3 and 6 h, 4 days. Format: cell-based, Babesia caballi. The procedure: as §3

SMILES strings stand for the structures. Where only a bound is given, the exact number is not on record here.

For the molecule `O=C1C(O)=C([C@H]2CC[C@H](c3ccc(Cl)cc3)CC2)C(=O)c2ccccc21` [AQ, atovaquone], the “inhibition of cell line at 100 μM” value in data set [1], in data set [2] and in data set [3] was “did not show any inhibition” each time. For the same molecule, the EC50 in data set [1], in data set [2] and in data set [3] was > 100 µM in each case.

As to `Cn1c2c3ccccc3nc-2cc2ccccc21` [CRY, Cryptolepine hydrate], in data set [4], the “adverse effects in mice” value is listed as “no apparent adverse effects”. Also, the “multiplication of B. divergens, CRY-treated RBCs versus normal RBCs” value in data set [5] was “did not significantly differ”. The “suppression of P. berghei parasitemia in mice” value in data set [6] is reported as 80.5%. In addition, in data set [7], the “multiplication of B. caballi, CRY-treated RBCs versus normal RBCs” value is recorded as “did not significantly differ”. The EC50 in data set [1] is 95.3 ± 2.7 µM; in data set [2], 86.7 ± 4.43 µM; in data set [3] it was > 100 µM. The “inhibition of cell line at 100 μM” value in data set [3] was “did not show any inhibition”.

A word on the EC50: it is the concentration giving half of the maximal effect. Read a high EC50 as weaker potency.

These data come from article PMC7451656, “In vitro and in vivo growth inhibitory activities of cryptolepine hydrate against several Babesia species and Theileria equi” (PLoS Neglected Tropical Diseases, 2020).
